Laboratory results from patent US4579866A, “Phenylacetamides as anti-allergy, anti-asthma and anti-inflammatory agents” (USV Pharmaceutical Corp., priority 1984, dated 1986).

Target: T1, RAT 5-LIPOXYGENASE (Rattus norvegicus, UniProt P12527)
T1 construct: A suspension of rat neutrophils in buffer; endogenous in cells; host or cells: rat neutrophils (polymorphonuclear leukocytes)
T1 sequence (P12527 1-673): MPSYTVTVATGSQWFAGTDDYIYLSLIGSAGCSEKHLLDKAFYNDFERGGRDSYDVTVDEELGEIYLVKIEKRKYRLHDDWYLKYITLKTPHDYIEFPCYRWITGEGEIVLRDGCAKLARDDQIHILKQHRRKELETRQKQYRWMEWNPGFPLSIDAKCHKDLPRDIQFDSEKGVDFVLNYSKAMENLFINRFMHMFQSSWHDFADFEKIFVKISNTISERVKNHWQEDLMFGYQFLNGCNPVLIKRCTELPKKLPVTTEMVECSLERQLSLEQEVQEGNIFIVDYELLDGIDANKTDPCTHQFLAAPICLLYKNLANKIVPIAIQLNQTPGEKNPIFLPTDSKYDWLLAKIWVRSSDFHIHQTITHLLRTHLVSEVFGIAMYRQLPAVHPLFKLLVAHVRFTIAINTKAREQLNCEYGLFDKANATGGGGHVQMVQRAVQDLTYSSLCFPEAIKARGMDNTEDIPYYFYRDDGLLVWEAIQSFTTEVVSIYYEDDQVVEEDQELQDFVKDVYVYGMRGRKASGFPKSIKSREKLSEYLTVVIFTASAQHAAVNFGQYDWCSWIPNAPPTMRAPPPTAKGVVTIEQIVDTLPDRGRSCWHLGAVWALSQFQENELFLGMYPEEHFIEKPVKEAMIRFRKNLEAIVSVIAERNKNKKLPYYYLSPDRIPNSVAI
Assay: Biosynthesis of 5-HETE by rat polymorphonuclear leukocytes in vitro (inhibition of rat 5-lipoxygenase)
Assay type: cell-based
Conditions: rat neutrophils, A23187, 3 minutes at 30° C.; concentration at which 50% inhibition is observed; read-out: INHIBITION OF RAT 5-LIPOXYGENASE, I50
Procedure: Protocol for the Biosynthesis of 5-HETE by Rat Polymorphonuclear Leukocytes In Vitro
A suspension of rat neutrophils in buffer is incubated for 3 minutes at 30° C. with [^14 C]-arachidonic acid (AA) and calcium ionophore A23187. Citric Acid (2M) NDGA (10 mM) is used to quench the reaction. Following the addition of a trace amount of (^3 H)-5-HETE together with an excess of unlabeled 5-HETE to each tube, the mixture is extracted with chloroform/methanol. The organic layer is washed with dilute acid and an aliquot is transferred to glass tubes and dried. The residue is dissolved in a small volume of chloroform and an aliquot is spotted on silica gel TLC sheets, which are developed with an ethyl acetate/isoctane/water/acetic acid solvent system. The 5-HETE spots are visualized under UV light, cut out and placed in scintillation vials for counting. After adjusting for the extraction efficiency, the amount (pmole) of [^14 C]-5-HETE in each of the tubes is quantitated. The net pmoles of 5-HETE are obtained by subtracting the pmoles of 5-HETE in the tubes containing buffer alone (blank) from the pmoles of 5-HETE in the tubes containing […]. The ability of the test compounds to modulate the activity of this enzyme is determined by a decrease or increase in the net amount of 5-HETE produced.
If the percentage of inhibition exceeds 50%, the compounds are then evaluated in terms of response over a range of concentrations. From a plot of response against concentration, the I50 value is obtained. The I50 value is the concentration at which 50% inhibition is observed.

Row | IC50 [µM] | SMILES
1 | 3 | CN(CC(O)c1ccccc1)C(=O)Cc1ccc(OCCc2ccccc2)c(Cl)c1 (stereo not shown) [N--[3-Chloro-4-phenylethyloxyphenylacetyl]-N--methyl-2-hydroxy-2-phenyl-ethyl-amine]
2 | 2.4 | C=CCOc1ccc(CC(=O)N(C)CCc2ccccc2)cc1Cl [N--[4-Alloyoxy-3-chlorophenylacetyl]-N--methyl-2-phenylethylamine]
3 | 0.8 | CCCOc1ccc(CC(=O)N[C@H](Cc2ccccc2)C(=O)OC)cc1Cl [3-Chloro-4-n-propyloxyphenylacetyl-D-phenylalanine methyl ester]
4 | 0.5 | C#CCOc1ccc(CC(=O)N[C@H](Cc2ccccc2)C(=O)OC)cc1Cl [3-Chloro-4-propargyloxyphenylacetyl-D-phenylalanine methyl ester]
